Results: US10752624B2, “Kinase inhibitors” (Origenis GmbH, priority 2012, dated 2020)

Legend:
[1] = biological target: T1, SYK kinase (Homo sapiens, UniProt P43405); test: SYK Assay (OMNIA Kinase Assay, SOX peptide fluorescence); format: biochemical; conditions: 1 mM ATP, 10 μM Omnia Peptide Substrate Tyr 7, 30° C., readings for 30 minutes; read-out: SYK Activities: IC50
T1 construct: purchased Invitrogen, Carlsbad
Experimental: In the assay OMNIA® KINASE ASSAY by Invitrogen Corporation (Carlsbad) the effect of invention of a compound on the phosphorylation is determined by measurement of fluorescence intensity of a chelation-enhanced fluorophore called SOX. Upon phosphorylation of the peptide by the kinase of interest, Mg2+ is chelated to form a bridge between the SOX moiety and the phosphate group that is transferred to the specific tyrosine on the peptide. The fluorescence intensity is directly proportional to the amount of peptide phosphorylation.
To the wells of an 384 well small volume plate (Greiner, Frickenhausen) are added (i) the compound under test in 5% DMSO/distilled water (2 μl), (ii) 16 μl of the master mix containing ATP, DTT, Kinase Reaction Buffer, Omina Peptide Substrate Tyr 7 resulting in a final concentration of 1 mM ATP, 0.2 mM DTT and 10 μM Peptide Substrate.
The Master Mix and the assay plate was incubated to reaction temperature before the measurement (30° C.). The reaction was started with addition of (iii) 2 μl 4 μg/ml SYK kinase (Invitrogen, Carlsbad). During measurement fluorescence intensity readings were collected using a TECAN M1000 at a wavelength of λex 360/λem 485 nm every 30 s for 30 minutes. The reaction velocity was plotted versus the inhibitor concentration to determine the IC50 using XLFit 5.0 (IDBS, Guildford) to fit to a sigmoidal dose response curve.

[2] = biological target: LRRK2 (Homo sapiens, UniProt Q5S007); test: LRRK2-LRRK2 G2019S-Assay (LanthaScreen Eu Kinase Binding Assay); conditions: 5 nM LRRK2, 10 nM tracer 236, 2 nM EU-Anti-GST antibody, 1 h at RT; read-out: LRRK2 Activities: IC50
Method in brief: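 In a TR-FRET tracer displacement assay, LRRK2 or its mutants at 5 nM were mixed with 2 nM Eu-anti-GST antibody and 10 nM tracer 236 in kinase buffer A for 1 h at RT. The 665/615 nm emission ratio was plotted against inhibitor concentration, and IC50 came from a variable-slope sigmoidal fit.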

Sequence of LRRK2 (Q5S007 970-2527 limits assumed): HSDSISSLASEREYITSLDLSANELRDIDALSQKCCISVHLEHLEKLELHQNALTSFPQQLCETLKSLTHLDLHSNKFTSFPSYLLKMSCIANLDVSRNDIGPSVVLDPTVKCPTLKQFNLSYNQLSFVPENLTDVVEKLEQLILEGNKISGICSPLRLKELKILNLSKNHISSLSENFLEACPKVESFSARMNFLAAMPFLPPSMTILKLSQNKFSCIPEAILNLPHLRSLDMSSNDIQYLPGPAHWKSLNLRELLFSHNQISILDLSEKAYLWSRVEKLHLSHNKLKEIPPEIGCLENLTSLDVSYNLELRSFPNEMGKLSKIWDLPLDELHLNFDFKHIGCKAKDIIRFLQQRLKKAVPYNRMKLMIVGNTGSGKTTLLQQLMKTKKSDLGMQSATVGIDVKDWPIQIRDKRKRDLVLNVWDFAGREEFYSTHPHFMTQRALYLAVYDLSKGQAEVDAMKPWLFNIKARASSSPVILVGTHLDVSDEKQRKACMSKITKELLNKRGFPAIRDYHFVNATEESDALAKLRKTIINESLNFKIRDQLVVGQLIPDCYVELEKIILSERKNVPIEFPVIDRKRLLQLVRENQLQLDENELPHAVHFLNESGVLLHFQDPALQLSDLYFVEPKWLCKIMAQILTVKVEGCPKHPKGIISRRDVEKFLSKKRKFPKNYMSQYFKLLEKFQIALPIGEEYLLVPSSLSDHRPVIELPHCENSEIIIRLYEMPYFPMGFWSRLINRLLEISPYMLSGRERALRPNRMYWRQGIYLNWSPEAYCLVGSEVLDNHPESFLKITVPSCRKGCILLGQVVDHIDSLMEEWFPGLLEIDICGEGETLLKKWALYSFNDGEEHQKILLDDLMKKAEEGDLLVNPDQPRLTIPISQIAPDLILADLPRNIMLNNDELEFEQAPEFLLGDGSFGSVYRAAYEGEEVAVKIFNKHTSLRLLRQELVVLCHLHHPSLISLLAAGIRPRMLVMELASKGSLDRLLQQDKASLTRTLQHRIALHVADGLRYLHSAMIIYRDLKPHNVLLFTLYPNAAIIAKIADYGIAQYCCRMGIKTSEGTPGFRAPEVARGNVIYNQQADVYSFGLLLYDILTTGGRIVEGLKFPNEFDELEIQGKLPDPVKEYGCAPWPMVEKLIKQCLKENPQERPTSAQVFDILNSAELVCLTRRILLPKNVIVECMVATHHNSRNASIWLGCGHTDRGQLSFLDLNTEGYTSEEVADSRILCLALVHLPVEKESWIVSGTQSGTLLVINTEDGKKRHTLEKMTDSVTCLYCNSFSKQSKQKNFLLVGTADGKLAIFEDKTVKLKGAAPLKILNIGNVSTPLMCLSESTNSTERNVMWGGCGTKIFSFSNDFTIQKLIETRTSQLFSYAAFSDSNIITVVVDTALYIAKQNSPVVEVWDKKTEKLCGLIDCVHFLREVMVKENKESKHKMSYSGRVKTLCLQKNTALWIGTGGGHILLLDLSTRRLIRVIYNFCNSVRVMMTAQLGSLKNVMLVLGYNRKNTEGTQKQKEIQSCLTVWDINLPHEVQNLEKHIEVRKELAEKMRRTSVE

Compound	IC50 [1] [µM]	IC50 [2] [µM]
O=C1CCc2ccc(Nc3nc4c(F)cccc4c4cn[nH]c34)cc2N1 [Example 54, 7-((6-fluoro-3H-pyrazolo[3,4-c]quinolin-4-yl)amino)-3,4-dihydroquinolin-2(1H)-one]	0.1 to 1	
COCCn1cc(Nc2nc3cccc(OC)c3c3c[nH]nc23)cn1 [Example 116, 9-methoxy-N-(1-(2-methoxyethyl)-1H-pyrazol-4-yl)-2H-pyrazolo[3,4-c]quinolin-4-amine]	0.1 to 1	
COc1ccc2nc(Nc3cnn(C4CCN(C)CC4)c3)c3n[nH]cc3c2c1 [Example 151, 8-methoxy-N-(1-(1-methylpiperidin-4-yl)-1H-pyrazol-4-yl)-2H-pyrazolo[3,4-c]quinolin-4-amine]	0.01 to 0.1	
CC(=O)N1CCC(n2cc(Nc3nc4ccc(S(C)(=O)=O)cc4c4cn[nH]c34)cn2)CC1 [Example 115, 1-(4-(4-((8-(methylsulfonyl)-3H-pyrazolo[3,4-c]quinolin-4-yl)amino)-1H-pyrazol-1-yl)piperidin-1-yl)ethan-1-one]	< 0.01	
COc1ccc2nc(Nc3cnn(C4CCN(C(C)=O)CC4)c3)c3n[nH]cc3c2c1 [Example 152, 1-(4-(4-((8-methoxy-2H-pyrazolo[3,4-c]quinolin-4-yl)amino)-1H-pyrazol-1-yl)piperidin-1-yl)ethan-1-one]	0.01 to 0.1	
COc1cccc2nc(Nc3cnn(C4CCOCC4)c3)c3[nH]ncc3c12 [Example 102, 9-methoxy-N-(1-(tetrahydro-2H-pyran-4-yl)-1H-pyrazol-4-yl)-3H-pyrazolo[3,4-c]quinolin-4-amine]	0.1 to 1	
COc1ccc2nc(Nc3ccc(N4CCOC4=O)cc3)c3n[nH]cc3c2c1 [Example 25, 3-(4-((8-methoxy-2H-pyrazolo[3,4-c]quinolin-4-yl)amino)phenyl)oxazolidin-2-one]		0.1 to 1
Fc1cccc2nc(Nc3ccc(CN4CCOCC4)cc3)c3[nH]ncc3c12 [Example 30, 9-fluoro-N-(4-(morpholinomethyl)phenyl)-3H-pyrazolo[3,4-c]quinolin-4-amine]		0.1 to 1
COc1cccc2nc(Nc3cn(C4CCOCC4)nc3C)c3[nH]ncc3c12 [Example 207, 9-methoxy-N-(3-methyl-1-(tetrahydro-2H-pyran-4-yl)-1H-pyrazol-4-yl)-3H-pyrazolo[3,4-c]quinolin-4-amine]		0.01 to 0.1
COc1cccc2nc(Nc3cnn(C(C)(C)C)c3)c3[nH]ncc3c12 [Example 181, N-(1-(tert-butyl)-1H-pyrazol-4-yl)-9-methoxy-3H-pyrazolo[3,4-c]quinolin-4-amine]		< 0.01
COc1cccc2nc(Nc3cn(C(C)C)nc3C)c3[nH]ncc3c12 [Example 220, N-(1-isopropyl-3-methyl-1H-pyrazol-4-yl)-9-methoxy-3H-pyrazolo[3,4-c]quinolin-4-amine]		< 0.01
CC(=O)N1CCN(c2ccc(Nc3nc4cccc(S(C)(=O)=O)c4c4cn[nH]c34)cc2)CC1 [Example 93, 1-(4-(4-((9-(methylsulfonyl)-3H-pyrazolo[3,4-c]quinolin-4-yl)amino)phenyl)piperazin-1-yl)ethan-1-one]		0.01 to 0.1
CC(=O)N1CCC(n2cc(Nc3nc4ccc(S(C)(=O)=O)cc4c4cn[nH]c34)cn2)CC1 [Example 155, 1-(4-(4-((8-(methylsulfonyl)-3H-pyrazolo[3,4-c]quinolin-4-yl)amino)-1H-pyrazol-1-yl)piperidin-1-yl)ethan-1-one]		< 0.01
COc1cccc2nc(Nc3ccc(N4CCCC4=O)cc3)c3[nH]ncc3c12 [Example 68, 1-(4-((9-methoxy-3H-pyrazolo[3,4-c]quinolin-4-yl)amino)phenyl)pyrrolidin-2-one]		0.01 to 0.1
COc1ccc(Nc2nc3ccc(S(C)(=O)=O)cc3c3cn[nH]c23)cc1OC [Example 63, N-(3,4-dimethoxyphenyl)-8-(methylsulfonyl)-3H-pyrazolo[3,4-c]quinolin-4-amine]		0.01 to 0.1
Cc1cccc2nc(Nc3cccc(S(C)(=O)=O)c3)c3[nH]ncc3c12 [Example 88, 9-methyl-N-(3-(methylsulfonyl)phenyl)-3H-pyrazolo[3,4-c]quinolin-4-amine]		0.1 to 1
COc1ccc2nc(Nc3cnn(C)c3C)c3n[nH]cc3c2c1 [Example 104, N-(1,5-dimethyl-1H-pyrazol-4-yl)-8-methoxy-2H-pyrazolo[3,4-c]quinolin-4-amine]		0.1 to 1
CS(=O)(=O)c1cccc2nc(Nc3ccc(N4CCOCC4)cc3)c3[nH]ncc3c12 [Example 92, 9-(methylsulfonyl)-N-(4-morpholinophenyl)-3H-pyrazolo[3,4-c]quinolin-4-amine]		< 0.01
CS(=O)(=O)c1cccc2nc(Nc3ccc(NCCO)cc3)c3[nH]ncc3c12 [Example 106, 2-((4-((9-(methylsulfonyl)-3H-pyrazolo[3,4-c]quinolin-4-yl)amino)phenyl)amino)ethan-1-ol]		0.1 to 1
CSc1ccc2nc(Nc3ccc(N4CCOCC4)cc3)c3[nH]ncc3c2c1 [Example 43, 8-(methylthio)-N-(4-morpholinophenyl)-3H-pyrazolo[3,4-c]quinolin-4-amine]		0.01 to 0.1

Results, then the molecule that gave them:

IC50 [1] [µM]	IC50 [2] [µM]	Compound
0.1 to 1		CS(=O)(=O)c1ccc2nc(Nc3cnn(-c4ccccn4)c3)c3n[nH]cc3c2c1 [Example 341, 8-(methylsulfonyl)-N-(1-(pyridin-2-yl)-1H-pyrazol-4-yl)-2H-pyrazolo[3,4-c]quinolin-4-amine]
0.01 to 0.1		CS(=O)(=O)c1ccc2nc(Nc3ccc(N4CCOCC4)c(C#N)c3)c3n[nH]cc3c2c1 [Example 354, 5-((8-(methylsulfonyl)-2H-pyrazolo[3,4-c]quinolin-4-yl)amino)-2-morpholinobenzonitrile]
0.1 to 1		COCCn1cc(Nc2nc3ccc(S(C)(=O)=O)cc3c3cn[nH]c23)c(C#N)n1 [Example 248, 1-(2-methoxyethyl)-4-((8-(methylsulfonyl)-3H-pyrazolo[3,4-c]quinolin-4-yl)amino)-1H-pyrazole-3-carbonitrile]
0.1 to 1		COc1cc(OC)c2nc(Nc3cnn(C(C)C)c3)c3[nH]ncc3c2c1 [Example 294, N-(1-isopropyl-1H-pyrazol-4-yl)-6,8-dimethoxy-3H-pyrazolo[3,4-c]quinolin-4-amine]
	0.1 to 1	CS(=O)(=O)c1ccc2nc(Nc3ccccc3O)c3n[nH]cc3c2c1 [Example 336, 2-((8-(methylsulfonyl)-2H-pyrazolo[3,4-c]quinolin-4-yl)amino)phenol]
	0.01 to 0.1	COCCn1ncc(Nc2nc3cccc(OC)c3c3cn[nH]c23)c1Cl [Example 241, N-(5-chloro-1-(2-methoxyethyl)-1H-pyrazol-4-yl)-9-methoxy-3H-pyrazolo[3,4-c]quinolin-4-amine]
	0.1 to 1	COCCn1cc(Nc2nc3cccc(OC)c3c3cn[nH]c23)c(C(F)(F)F)n1 [Example 267, 9-methoxy-N-(1-(2-methoxyethyl)-3-(trifluoromethyl)-1H-pyrazol-4-yl)-3H-pyrazolo[3,4-c]quinolin-4-amine]
	< 0.01	COc1cccc2nc(Nc3cnn(C4CCNCC4)c3Cl)c3[nH]ncc3c12 [Example 254, N-(5-chloro-1-(piperidin-4-yl)-1H-pyrazol-4-yl)-9-methoxy-3H-pyrazolo[3,4-c]quinolin-4-amine]
	0.01 to 0.1	CS(=O)(=O)c1ccc2nc(Nc3ccc4c(c3)NC(=O)CO4)c3n[nH]cc3c2c1 [Example 343, 6-((8-(methylsulfonyl)-2H-pyrazolo[3,4-c]quinolin-4-yl)amino)-2H-benzo[b][1,4]oxazin-3(4H)-one]
	0.01 to 0.1	COc1ccc2nc(Nc3cnn(-c4ccccn4)c3)c3n[nH]cc3c2c1 [Example 319, 8-methoxy-N-(1-(pyridin-2-yl)-1H-pyrazol-4-yl)-2H-pyrazolo[3,4-c]quinolin-4-amine]
	0.1 to 1	CS(=O)(=O)c1ccc2nc(Nc3cc(C(=O)O)n[nH]3)c3n[nH]cc3c2c1 [Example 335, 5-((8-(methylsulfonyl)-2H-pyrazolo[3,4-c]quinolin-4-yl)amino)-1H-pyrazole-3-carboxylic acid]
	0.1 to 1	CC(C)n1cc(Nc2nc3ccc(S(C)(=O)=O)cc3c3cn[nH]c23)c(C(N)=O)n1 [Example 250, 1-isopropyl-4-((8-(methylsulfonyl)-3H-pyrazolo[3,4-c]quinolin-4-yl)amino)-1H-pyrazole-3-carboxamide]
	0.1 to 1	Cc1nn(CC(C)(C)O)cc1Nc1nc2ccc(S(C)(=O)=O)cc2c2c[nH]nc12 [Example 325, 2-methyl-1-(3-methyl-4-((8-(methylsulfonyl)-2H-pyrazolo[3,4-c]quinolin-4-yl)amino)-1H-pyrazol-1-yl)propan-2-ol]
	0.1 to 1	COCCn1ncc(Nc2nc3cccc(OC)c3c3cn[nH]c23)c1C(F)(F)F [Example 268, 9-methoxy-N-(1-(2-methoxyethyl)-5-(trifluoromethyl)-1H-pyrazol-4-yl)-3H-pyrazolo[3,4-c]quinolin-4-amine]
